In patent US20240041813A1, “VERY-LONG-CHAIN POLYUNSATURATED FATTY ACIDS, ELOVANOID HYDROXYLATED DERIVATIVES, AND METHODS OF USE” (priority 2020, published 2024):
Entries after “also recorded” stand apart in the source; their conditions may differ.

What was measured:
injured rat cornea = test: Rat cornea alkali burn: corneal RNA-seq, cytokine storm, NFkB/inflammation, senescence, integrin and protease genes; type: in vivo
Procedure: (§1) The rats were anesthetized by intraperitoneal injection of Ketamine (50-100 mg/kg) plus xylazine (5-10 mg/kg). A 4 mm diameter filter paper soaked in 1 N NaOH was placed on the central cornea of the right eye for 45 seconds, and then the eye was thoroughly washed with […] of saline. After injury, the rats were randomly divided into five treatment groups: vehicle; lipoxin A4 (LXA4) from Cayman Chemical (Ann Arbor, MI, USA); R,R Resolvin D6 isomer (RvD6i), R,R neuroprotection D (NPD1), and elovanoid (ELV)-N32. All lipid solutions were prepared at the final concentration of […] using PBS with the minimal contamination of ethanol by evaporating the ethanol and immediately dissolve the lipids in PBS, then vortex well for 2 min. Topical administration (20 μl) was done 3×/day for 14 days. The experiments were double-blinded with the lipid mediators coded during the whole experiments. At the end of the study, when all data was collected, the code was opened.
(§2) Injured corneas (n=5/condition) were harvested and homogenized with TRIzol (Thermo Fisher Scientific) on ice with a glass Dounce homogenizer. RNA sequencing was performed as described^14. Briefly, after mRNA extraction and determination of purity, 8 ng of total RNA was reverse transcribed, and total cDNAs were amplified using ISPCR primer, and the library was made with the Nextera XT DNA library preparation kit (Illumina, San Diego, CA, USA). The libraries were pooled with the same molarity and sequenced using the NextSeq 500/550 High Output Kit v2 (75 cycles, Illumina). After demultiplexing, RNA-seq data were aligned to the Rattus Norvegicus reference genome (.ensembl.org/pub/release-98/fasta/rattus_norvegicus/dna/) using the Subread package v2.0.1 alignment function39. The BAM files for sequencing data alignment were counted using featureCounts function of Subread tool^40 using the macOS Catalina. The raw count data were subjected to differential gene expression analysis using DESeq2 package for R^41 with the vehicle group as reference. The adjusted p-values were named as the false discover rate (FDR).

TMPRSS2 = TMPRSS2 mRNA by Taqman qPCR in human alveolar cells; type: cell-based; settings: in the presence of IL1β
Procedure: Real-Time PCR using Taqman probes and SYBR green assay. cDNA was produced using lug of total RNA extracted by RNAeasy (Qiagen, Hilden Germany, cat #74104). The first strand of cDNA was produced using iScript™ Reverse Transcription Supermix for RT-qPCR (BioRad cat #1708840). The quantification of Sirt 1, RNF-146, Bcl2, BcL-xl was performed using SYBRgreen assay with primers designed in house (Table 1) using SsoAdvanced Universal SYBR Green Supermix (Biorad cat #1725270). The quantification of ACE2 and TMPRSS2 mRNA was performed using Taqman probes (Biorad cat #qHsaCEP0051563 & qHsaCIP0028919 respectively) labeled with FAM and standardized using PGK1 probe labeled with HEX (Biorad cat #qHsaCEP0050174).

Alexa 594-RBD [1] = test: HCEC challenged with IFNγ: Alexa 594-RBD binding (unbiased imaging, Imaris); type: cell-based, human; settings: IFNγ 100 ng/ml and lipid mediators 200 nM for 12 h, images 24 h after RBD
Procedure: For screening the stimulation of receptor ACE2 by cytokines, the HCEC were cultured with KGM until 50-60% confluence. Then, changed to KBM containing IL-1β, -2, -6 and 8, IFN-α, -ε, and -γ or TNFα at 1, 10 or 100 ng/ml. The cells were harvested after 6 hours and analyze for the gene expression of Ace2. In other experiments, HCEC were stimulated with IFNγ, and thereafter, lipid mediators were added. For the Alexa 594-conjugated RBD binding, IFNγ was used as a cytokine trigger. At 12 hours after cytokine exposure and lipid mediator treatments, […] of labeled RBD was added to the medium. The evaluation of RBD binding was conducted 24 hours after.
Twenty-four hours after Alexa 594-RBD was added to the HCEC, the cells were washed with PBS (3×/5 min) and fixed with 4% paraformaldehyde for 30 minutes at RT. The HCEC were washed 2× with PBS and stained with Hoechst 33342 Solution (ThermoFisher Scientific, Cat. 62249) for 30 minutes at RT. Next, the HCEC were washed 2× with PBS before imaging. For unbiased data collection, 7 designated areas were defined in each well (FIG. 63) and captured with an Olympus FV3000 confocal laser scanning microscopy under “Multi Area Time Lapse” (MATL) mode. All images were acquired with the same parameters and Z-section range, converted and inputted in the Imaris software version 9.5.1. The threshold for the control images was defined by the HCEC without Alexa 594-conjugated RBD of S protein and using it as a threshold filter for the Imaris batch image processing function. The sum of total intensity for each image was used to evaluate the binding efficiency.

[2] = system: human corneal epithelial cells (HCEC); test: HCEC challenged with IFNγ: SASP secretome (β-Gal staining); type: cell-based; settings: HCEC 24 h after IFN-γ challenge
Alexa 594-RBD [3] = type: in vivo; settings: rat cornea after alkali burn; 14 days treatment; Alexa 594-RBD 1 μg/eye, 3 times at day 15, examined a day later
ACE2 = test: Rat cornea alkali burn: corneal RNA-seq, Ace2 gene expression; type: in vivo; settings: rat cornea after alkali burn; eye drops 3 times/day for 14 days; RNA-seq day 14
Procedure: as §1, §2

[4] = system: receptor-binding domain (RBD) of the SARS-CoV-2 spike; type: cell-based, human
[5] = rat cornea, RNA-seq 14 days after injury

SMILES: CC/C=C\CC(O)\C=C/C=C/C=C/C(O)C/C=C\C/C=C\CCCCCCCCCCCCC(=O)O [ELV-N32, (14Z,17Z,20R,21E,23E,25Z,27S,29Z)-20,27-dihydroxydo-triaconta-14,17,21,23,25,29-hexaenoic acid]
- Furin expression (injured rat cornea; cornea injury model (FIG. 57)): remarkably decreases
- 51 injury-upregulated genes (cytokines, SASP, NFkB inflammatory) (injured rat cornea; [5]): most are inhibited
- Il6 and Vegfa expression (injured rat cornea; [5]): reduced
- integrin gene expression (Itga5 and Itgb 1) (injured rat cornea; [5]): significantly decreased; also recorded: decrease
- transcriptomic profile in PCA plot relative to control cornea (injured rat cornea; [5]): nearest to the normal cornea
- Cdkn2a gene expression (p16INK4a) (injured rat cornea; rat cornea, RNA-seq normalized counts, 14 days after injury): decrease
- TMPRSS2 expression (TMPRSS2): decreased
- IFNγ-stimulated Alexa 594-RBD binding (Alexa 594-RBD [1]): decrease; also recorded: attenuated
- senescence programming genes and SASP secretome activation (β-Gal) [2]: blocked; also recorded: suppressed
- binding of Alexa 594-RBD to injured cornea (Alexa 594-RBD [3]): decrease; also recorded: counteracted
- Ace2 gene expression levels (ACE2): decrease
- RBD of the SARS-CoV-2 spike entrance / internalized RBD [4]: diminishes
- RBD protein internalization (RBD located below the membrane line) [4]: decrease
